What all share (assay type): in vivo
The subject of series [1] is transplanted Oryza sativa. Kind of series: Test Example 1: effect on crop, application before weed generation in submerged conditions. The following applies: Application herbicide amount 320 g/ha; Seventeenth Table. The method, boiled down:
(§1)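 Alluvial soil in Wagner pots flooded to 4 cm water depth; weed seeds sown and 2.5 leaf stage rice seedlings transplanted. Emulsion diluted in water applied to water surface on sowing day at stated g/ha. Greenhouse 25° C. to 30° C.; effects scored 0–5 by herbicidal ratio after three weeks.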

The test system of the next series is Stellaria media. Kind of series: Test Example 4: herbicidal effect by application to foliage (diluvial soil, plastic box). Particulars: application to foliage, application herbicide amount 320 g/ha. The method, boiled down:
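Scores run from 0 (herbicidal ratio ≤5%) to 5 (≥90%, almost fully withered) and were assessed three weeks after foliar spraying. Seedlings had been raised for 14 days at 25-30° C in sterilized diluvial soil before treatment, with the emulsion diluted in water to the stated g/ha dose.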

The subject of a further series is Cyperus difformis. The series is described as follows: Test Example 3: herbicidal effect by application to foliage (Wagner pot, water depth 0.1-0.5 cm). The following applies: Nineteenth Table; application herbicide amount 320 g/ha. The essentials: (§2)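 Seeds were sown in alluvial soil in Wagner pots, grown for 14 days at 25–30 °C, then sprayed uniformly on foliage with the emulsified compound diluted to a given rate per hectare. Injury was graded three weeks after treatment from 0 (≤5%) to 5 (≥90%).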

Series [2] deals with Echinochloa crus-galli var. crus-galli. Described as above. Particulars: Nineteenth Table; application herbicide amount 320 g/ha. The essentials: as §2
For the next series, the system named is Leptochloa chinensis. Described as above. The following applies: Nineteenth Table; application herbicide amount 320 g/ha. The essentials: as §2
The test system of series [3] is Echinochloa oryzacola Vasing. Kind of series: Test Example 1: herbicidal activity, application before weed generation in submerged conditions. Particulars: Application herbicide amount 320 g/ha; Seventeenth Table. The essentials:
as §1

Another series relates to Scirpus juncoides. Described as above. Particulars: Application herbicide amount 320 g/ha; Seventeenth Table. The essentials: as §1
For another series, the system named is Monochoria vaginalis. Described as above. Particulars: Application herbicide amount 320 g/ha; Seventeenth Table. The method, boiled down: as §1
Series [4] deals with directly sowed Oryza sativa. The series is described as follows: Test Example 3: effect on crop by application to foliage (Wagner pot, water depth 0.1-0.5 cm). Particulars: Nineteenth Table; application herbicide amount 320 g/ha. The essentials: as §2

Data on seven molecules can be found in patent publication US9708314B2, “Heterocyclic amide compound” (NISSAN CHEMICAL INDUSTRIES, LTD., priority 2013, dated 2017).

As to `Cc1nnc(NC(=O)c2ccc(C(F)(F)F)n3c(C4=NOC(C)(C)C4)nnc23)o1` [1-029], the “a: transplanted Oryza sativa (effect on crop grade)” value (from here on “a: transplanted Oryza sativa”) in [1] is 2 (Herbicidal ratio of 20% or more and less than 40%). For the same molecule, the “P (Stellaria media) herbicidal effect” value in the series with Stellaria media is listed as 5 (Herbicidal ratio of 90% or more (almost completely withered)). Also, in the series with Cyperus difformis, the “E (Cyperus difformis) herbicidal ratio grade” value is 4 (Herbicidal ratio of 70% or more and less than 90%). Further, the “H (Echinochloa crus-galli var. crus-galli) herbicidal ratio grade” value in series [2] is 4 (Herbicidal ratio of 70% or more and less than 90%). Further, the “D (Leptochloa chinensis) herbicidal ratio grade” value with Leptochloa chinensis was 5 (Herbicidal ratio of 90% or more (almost completely withered)). Also, the “A: Echinochloa oryzicola Vasing. (herbicidal effect grade)” value in series [3] was 5 (Herbicidal ratio of 90% or more (almost completely withered)). Further, the “B: Scirpus juncoides (herbicidal effect grade)” value (shortened to “B: Scirpus juncoides”) with Scirpus juncoides is 3 (Herbicidal ratio of 40% or more and less than 70%). For the same molecule, the “C: Monochoria vaginalis (herbicidal effect grade)” value (from here on “C: Monochoria vaginalis”) in the series on Monochoria vaginalis was 4 (Herbicidal ratio of 70% or more and less than 90%). The “b (directly sowed Oryza sativa) effect on crop grade” value in [4] was 4 (Herbicidal ratio of 70% or more and less than 90%).
`COc1ccccc1-c1nnc2c(C(=O)Nc3nnc(C)o3)ccc(C(F)(F)F)n12` [1-047]: in [1], the “a: transplanted Oryza sativa” value is 1 (Herbicidal ratio of 5% or more and less than 20%). Besides, the “P (Stellaria media) herbicidal effect” value in the series with Stellaria media was 4 (Herbicidal ratio of 70% or more and less than 90%). For the same molecule, the “E (Cyperus difformis) herbicidal ratio grade” value in the series on Cyperus difformis is 4 (Herbicidal ratio of 70% or more and less than 90%). In addition, in [2], the “H (Echinochloa crus-galli var. crus-galli) herbicidal ratio grade” value is listed as 5 (Herbicidal ratio of 90% or more (almost completely withered)). The “D (Leptochloa chinensis) herbicidal ratio grade” value in the series with Leptochloa chinensis is on record as 5 (Herbicidal ratio of 90% or more (almost completely withered)). Besides, in series [3], the “A: Echinochloa oryzicola Vasing. (herbicidal effect grade)” value was 4 (Herbicidal ratio of 70% or more and less than 90%). Besides, the “B: Scirpus juncoides” value in the series with Scirpus juncoides was 3 (Herbicidal ratio of 40% or more and less than 70%). In addition, in the series on Monochoria vaginalis, the “C: Monochoria vaginalis” value is 2 (Herbicidal ratio of 20% or more and less than 40%). In series [4], the “b (directly sowed Oryza sativa) effect on crop grade” value is 3 (Herbicidal ratio of 40% or more and less than 70%).
Take `COc1ccc(-c2nnc3c(C(=O)Nc4nnc(C)o4)ccc(C(F)(F)F)n23)cc1` [1-016]: the “a: transplanted Oryza sativa” value in [1] was 0 (Herbicidal ratio of 5% or less (almost no effect)). Besides, the “P (Stellaria media) herbicidal effect” value in the series on Stellaria media is recorded as 5 (Herbicidal ratio of 90% or more (almost completely withered)). For the same molecule, the “E (Cyperus difformis) herbicidal ratio grade” value in the series on Cyperus difformis was 5 (Herbicidal ratio of 90% or more (almost completely withered)). In addition, the “H (Echinochloa crus-galli var. crus-galli) herbicidal ratio grade” value in [2] is 5 (Herbicidal ratio of 90% or more (almost completely withered)). Also, the “D (Leptochloa chinensis) herbicidal ratio grade” value in the series with Leptochloa chinensis is recorded as 5 (Herbicidal ratio of 90% or more (almost completely withered)). For the same molecule, the “A: Echinochloa oryzicola Vasing. (herbicidal effect grade)” value in series [3] was 4 (Herbicidal ratio of 70% or more and less than 90%). For the same molecule, the “B: Scirpus juncoides” value with Scirpus juncoides is listed as 0 (Herbicidal ratio of 5% or less (almost no effect)). The “C: Monochoria vaginalis” value in the series with Monochoria vaginalis is listed as 0 (Herbicidal ratio of 5% or less (almost no effect)). For the same molecule, the “b (directly sowed Oryza sativa) effect on crop grade” value in series [4] is 1 (Herbicidal ratio of 5% or more and less than 20%).
`Cc1nnc(NC(=O)c2ccc(C(F)(F)F)n3c(C[S+]([O-])CC(F)(F)F)nnc23)o1` (stereo not drawn) [1-038]: the “a: transplanted Oryza sativa” value in series [1] is 0 (Herbicidal ratio of 5% or less (almost no effect)). Moreover, the “P (Stellaria media) herbicidal effect” value with Stellaria media is 5 (Herbicidal ratio of 90% or more (almost completely withered)). Also, the “E (Cyperus difformis) herbicidal ratio grade” value with Cyperus difformis is 4 (Herbicidal ratio of 70% or more and less than 90%). Moreover, the “H (Echinochloa crus-galli var. crus-galli) herbicidal ratio grade” value in series [2] is 5 (Herbicidal ratio of 90% or more (almost completely withered)). In the series on Leptochloa chinensis, the “D (Leptochloa chinensis) herbicidal ratio grade” value was 5 (Herbicidal ratio of 90% or more (almost completely withered)). The “A: Echinochloa oryzicola Vasing. (herbicidal effect grade)” value in series [3] is 2 (Herbicidal ratio of 20% or more and less than 40%). In addition, the “B: Scirpus juncoides” value with Scirpus juncoides is 2 (Herbicidal ratio of 20% or more and less than 40%). For the same molecule, the “C: Monochoria vaginalis” value with Monochoria vaginalis was 1 (Herbicidal ratio of 5% or more and less than 20%). Further, in series [4], the “b (directly sowed Oryza sativa) effect on crop grade” value is 2 (Herbicidal ratio of 20% or more and less than 40%).
In the case of `Cc1cc(-c2nnc3c(C(=O)Nc4nnc(C)o4)ccc(C(F)(F)F)n23)no1` [1-022], in [1], the “a: transplanted Oryza sativa” value is 0 (Herbicidal ratio of 5% or less (almost no effect)). For the same molecule, in the series with Stellaria media, the “P (Stellaria media) herbicidal effect” value is 4 (Herbicidal ratio of 70% or more and less than 90%). Besides, the “E (Cyperus difformis) herbicidal ratio grade” value with Cyperus difformis is 4 (Herbicidal ratio of 70% or more and less than 90%). Further, in series [2], the “H (Echinochloa crus-galli var. crus-galli) herbicidal ratio grade” value is given as 5 (Herbicidal ratio of 90% or more (almost completely withered)). In addition, the “D (Leptochloa chinensis) herbicidal ratio grade” value in the series with Leptochloa chinensis is on record as 5 (Herbicidal ratio of 90% or more (almost completely withered)). In addition, the “A: Echinochloa oryzicola Vasing. (herbicidal effect grade)” value in series [3] was 2 (Herbicidal ratio of 20% or more and less than 40%). In the series on Scirpus juncoides, the “B: Scirpus juncoides” value is 2 (Herbicidal ratio of 20% or more and less than 40%). In addition, in the series with Monochoria vaginalis, the “C: Monochoria vaginalis” value was 0 (Herbicidal ratio of 5% or less (almost no effect)). Further, the “b (directly sowed Oryza sativa) effect on crop grade” value in [4] was 2 (Herbicidal ratio of 20% or more and less than 40%).
As for `COCCc1nnc(NC(=O)c2ccc(C(F)(F)F)n3c(C(C)C)nnc23)o1` [1-052], in series [1], the “a: transplanted Oryza sativa” value is given as 0 (Herbicidal ratio of 5% or less (almost no effect)). Also, in the series with Stellaria media, the “P (Stellaria media) herbicidal effect” value was 2 (Herbicidal ratio of 20% or more and less than 40%). Further, the “E (Cyperus difformis) herbicidal ratio grade” value in the series with Cyperus difformis is listed as 5 (Herbicidal ratio of 90% or more (almost completely withered)). The “H (Echinochloa crus-galli var. crus-galli) herbicidal ratio grade” value in series [2] was 4 (Herbicidal ratio of 70% or more and less than 90%). In addition, the “D (Leptochloa chinensis) herbicidal ratio grade” value in the series on Leptochloa chinensis is listed as 5 (Herbicidal ratio of 90% or more (almost completely withered)). Besides, in series [3], the “A: Echinochloa oryzicola Vasing. (herbicidal effect grade)” value is 3 (Herbicidal ratio of 40% or more and less than 70%). In addition, the “B: Scirpus juncoides” value with Scirpus juncoides is 3 (Herbicidal ratio of 40% or more and less than 70%). Moreover, the “C: Monochoria vaginalis” value in the series on Monochoria vaginalis is 2 (Herbicidal ratio of 20% or more and less than 40%). In addition, in series [4], the “b (directly sowed Oryza sativa) effect on crop grade” value is 0 (Herbicidal ratio of 5% or less (almost no effect)).
`Cc1nnc(NC(=O)c2ccc(C(F)(F)F)n3c(CC(=O)O)nnc23)o1` [1-048]: the “a: transplanted Oryza sativa” value in series [1] was 1 (Herbicidal ratio of 5% or more and less than 20%). For the same molecule, the “P (Stellaria media) herbicidal effect” value with Stellaria media was 4 (Herbicidal ratio of 70% or more and less than 90%). Moreover, in the series on Cyperus difformis, the “E (Cyperus difformis) herbicidal ratio grade” value is 3 (Herbicidal ratio of 40% or more and less than 70%). Moreover, the “H (Echinochloa crus-galli var. crus-galli) herbicidal ratio grade” value in series [2] is 5 (Herbicidal ratio of 90% or more (almost completely withered)). Further, the “D (Leptochloa chinensis) herbicidal ratio grade” value with Leptochloa chinensis was 4 (Herbicidal ratio of 70% or more and less than 90%). Also, the “A: Echinochloa oryzicola Vasing. (herbicidal effect grade)” value in [3] is 3 (Herbicidal ratio of 40% or more and less than 70%). Besides, in the series with Scirpus juncoides, the “B: Scirpus juncoides” value is recorded as 0 (Herbicidal ratio of 5% or less (almost no effect)). Further, the “C: Monochoria vaginalis” value in the series on Monochoria vaginalis is 0 (Herbicidal ratio of 5% or less (almost no effect)). In addition, in [4], the “b (directly sowed Oryza sativa) effect on crop grade” value is 0 (Herbicidal ratio of 5% or less (almost no effect)).
